From ChEMBL document CHEMBL1138935, “Lead optimization providing a series of flavone derivatives as potent nonsteroidal inhibitors of the cytochrome P450 aromatase enzyme” (J Med Chem, 2006)

What follows are molecules tested against T1, CYP17 (steroid 17-alpha-hydroxylase/17,20 lyase) (Homo sapiens, UniProt P05093) (assay: Inhibition of CYP17 at 2.5 uM).
T1 sequence (P05093 whole entry): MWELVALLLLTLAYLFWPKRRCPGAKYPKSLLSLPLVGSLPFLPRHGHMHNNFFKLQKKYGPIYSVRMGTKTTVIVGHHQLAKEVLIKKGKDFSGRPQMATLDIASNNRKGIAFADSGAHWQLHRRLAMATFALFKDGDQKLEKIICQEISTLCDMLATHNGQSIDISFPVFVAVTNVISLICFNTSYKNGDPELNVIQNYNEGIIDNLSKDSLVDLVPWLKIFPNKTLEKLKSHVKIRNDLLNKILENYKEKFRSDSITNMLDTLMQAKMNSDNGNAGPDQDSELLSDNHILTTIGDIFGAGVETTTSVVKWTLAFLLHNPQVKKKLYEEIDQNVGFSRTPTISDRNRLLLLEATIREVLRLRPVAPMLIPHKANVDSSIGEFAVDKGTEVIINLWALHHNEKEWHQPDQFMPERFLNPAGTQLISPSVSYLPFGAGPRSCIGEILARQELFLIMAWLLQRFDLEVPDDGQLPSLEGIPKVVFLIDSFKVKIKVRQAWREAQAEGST

In order of falling inhibition at 2.5 µM:
1. COc1ccc2c(=O)c(Cn3ccnc3)c(-c3ccc(Br)cc3)oc2c1  29%
2. O=c1c(Cn2ccnc2)c(-c2ccc(Br)cc2)oc2ccccc12  27%
3. COc1ccc(-c2oc3ccccc3c(=O)c2Cn2ccnc2)cc1  26%
4. COc1ccc2c(=O)c(Cn3ccnc3)c(-c3ccc(C#N)cc3)oc2c1  12%
5. COc1ccc2c(=O)c(Cn3ccnc3)c(-c3ccc([N+](=O)[O-])cc3)oc2c1  9%
